32 compounds from PubChem BioAssay (NCI) can be followed below.

Some test systems named below: NCI-H23 lung; CAKI-1 renal; M19-MEL melanoma; DMS 114 small cell lung; DMS 273 small cell lung; KM20L2 colon; DLD-1 colon; LXFL 529 NSCLC.
Assay in all cases: inhibition of tumour cell growth, NCI panel, 48 h

Where “and” joins values, the source holds several entries; their conditions need not be identical. Equal values may be shown once.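 Cultured in 96-well plates, cells were exposed to test compound for 48 hours across five concentrations. GI50: concentration for 50% inhibition of growth. TGI marks complete inhibition of growth.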 *1 amine or outer side, *2 acyl side, *3 side chain or, on linkers, in order; H or OH if unused. Where a SMILES comes first, the peptide text is derived from it. [ ]: non-standard residue; d: D form. The star is where a group is joined. X31 = CC(=O)N(C)SCC(N[*:1])C(=O)[*:2]; Fmoc = O=C(OCC1c2ccccc2-c2ccccc21)*; For = O=C*

In the case of `COc1ccccc1N1C(=O)CC(=O)N(C(=O)CCCCCCCCC(=O)N2C(=O)CC(=O)N(c3ccccc3OC)C2=S)C1=S`, the TGI in the assay on NCI-H23 lung and in the assay with CAKI-1 renal was more than 100 µM in each case.

Consider `N#CCN(Cc1ccccc1)[C@@H]1CCC[C@]1(O)C#Cc1ccc2c(c1)OCO2`, for which the TGI is 42 µM in the assay with NCI-H23 lung and 77.4 µM with CAKI-1 renal.

Take `OC1(c2ccc3ccccc3c2)c2c(c3ccccc3c3ccccc23)C2=NCCN21` (centres undefined): the TGI with NCI-H23 lung is 47.2 µM; in the assay with CAKI-1 renal, more than 100 µM.

Consider `O=C(O)CO/N=C1/C(c2c(O)[nH]c3ccccc23)=Nc2ccccc21`, for which the TGI with NCI-H23 lung and in the assay with CAKI-1 renal was more than 100 µM throughout.

Regarding `CCCCCCC(=O)OC[n+]1cccc(-c2c(COC(=O)NC(C)C)c(COC(=O)NC(C)C)c3n2CCC3)c1`, the TGI was more than 74.1 µM in the assay with NCI-H23 lung and 47.8 µM in the assay on CAKI-1 renal.

For `O=C1C(NS(=O)(=O)c2ccccc2)=C(N(Cc2ccccc2)Cc2ccccc2)C(=O)c2ccccc21`, the TGI in the assay with NCI-H23 lung is 73.2 µM; in the assay on CAKI-1 renal, more than 100 µM.

Turning to `CC(C)OP(=O)(OC(C)C)C(Nc1cccc(C(F)(F)F)c1)c1ccccc1` (centres undefined), the TGI with NCI-H23 lung and with CAKI-1 renal was more than 100 µM throughout.

Turning to `CC(=O)/C(=C(/Br)I)c1ccccc1`, the results for the TGI with NCI-H23 lung and with CAKI-1 renal were 16.8 µM and 6.83 µM, respectively.

Consider `Nc1cc(N)c(N=Nc2cccc3c(S(=O)(=O)O)cccc23)cc1N=Nc1cc([N+](=O)[O-])ccc1O`, for which the TGI in the assay with NCI-H23 lung and in the assay with CAKI-1 renal was more than 100 µM throughout.

Take `C#CC(O)Cc1ccc(OC)c2occc12` (centres undefined): the TGI in the assay on NCI-H23 lung and in the assay on CAKI-1 renal was more than 100 µM throughout.

For `COC(=O)C1(C)OC(C)=NC1(C(=O)OC)C(=O)OC` (centres undefined), the TGI with NCI-H23 lung and in the assay on CAKI-1 renal was more than 100 µM throughout.

Turning to `COC(=O)[C@@H]1[C@H](O)CC[C@H]2[C@@]1(C)CC[C@@H](C)[C@]2(COC(C)=O)CC(=O)c1ccoc1`, the TGI in the assay with NCI-H23 lung and with CAKI-1 renal was more than 50 µM throughout.

Consider `CC(Nc1n[nH]c(=O)c2c1nnn2Cc1ccccc1)c1ccccc1` (centres undefined), for which, in the assay on NCI-H23 lung, the GI50 is > 100 µM and 43.8 µM. Moreover, the TGI in the assay with NCI-H23 lung was more than 100 µM; with CAKI-1 renal, > 100 µM and 52.9 µM.

`COc1ccc(/C=C(\Cl)c2ccc(OC)cc2)cc1`: the TGI with M19-MEL melanoma, with DMS 114 small cell lung, in the assay on NCI-H23 lung, in the assay with DMS 273 small cell lung, in the assay with KM20L2 colon and with CAKI-1 renal was more than 100 µM throughout. In addition, the TGI in the assay on DLD-1 colon and in the assay on LXFL 529 NSCLC was more than 100 µM each time.

For the compound `N#Cc1c(N2CCOCC2)ncn(-c2ccc(Cl)cc2)c1=O`, the TGI in the assay with NCI-H23 lung and in the assay with CAKI-1 renal was more than 100 µM throughout.

Take `CCOC(=O)NC(=S)NC(C)c1ccccc1` (centres undefined): the TGI in the assay on NCI-H23 lung and with CAKI-1 renal was more than 100 µM each time.

Regarding `CC1=C(C(=O)NC(C)(C)C)CC(C(=O)NC(C)(C)C)C(C)N1` (centres undefined), the TGI in the assay with NCI-H23 lung and in the assay with CAKI-1 renal was more than 100 µM throughout.

As to `O=[N+]([O-])c1ccc2[nH]c(O)c(N=NC(=S)Nc3ccccc3)c2c1`, the TGI with NCI-H23 lung worked out at 25.8 µM; with CAKI-1 renal, 15.2 µM.

`O=C1c2c(ccc3c2CCCC3)CC1Cc1ccc2c(c1)CCCC2` (centres undefined) came in with a TGI in the assay on NCI-H23 lung of more than 100 µM.

For the compound `Cc1ncc(CO)c(C=NCCCCCCN=Cc2c(CO)cnc(C)c2O)c1O`, the TGI in the assay on NCI-H23 lung and in the assay with CAKI-1 renal was more than 100 µM each time.

For `C=CC[C@H]1[C@H](O[Si](C)(C)C(C)(C)C)C=CC(=O)[C@@H]1CC(=O)OCC`, the TGI in the assay with NCI-H23 lung worked out at 33.6 µM; with CAKI-1 renal, 25.1 µM.

Take `O=C(O)CCc1nc2cc3ccccc3cc2[nH]c1=O`: the TGI in the assay with NCI-H23 lung and in the assay on CAKI-1 renal was more than 100 µM each time.

In the case of `CC1=C(C)C(=O)C(C2=C(C3=CC(=O)C(C)=C(C)C3=O)C(=O)c3ccccc3C2=O)=CC1=O`, the TGI is 10.2 µM with NCI-H23 lung and 5.66 µM in the assay with CAKI-1 renal.

As to `CC(=O)N(C)SCC(NC(=O)C(Cc1ccccc1)NC(=O)OCC1c2ccccc2-c2ccccc21)C(=O)NC(Cc1ccccc1)C(=O)NC(Cc1cn(C=O)c2ccccc12)C(=O)NC(CCCCNC(=O)OCC1c2ccccc2-c2ccccc21)C(=O)NC(C(=O)NC(CSN(C)C(C)=O)C(=O)NC(C(N)=O)C(C)O)C(C)O` (centres undefined) (Fmoc-F[X31]FW(For)K(Fmoc)T[X31]T-NH2; configuration not given here), the TGI in the assay with NCI-H23 lung was more than 100 µM.

Regarding `COC(=O)CCC1(O)C=CC(=O)C=C1`, the TGI in the assay on NCI-H23 lung was 97.4 µM; in the assay on CAKI-1 renal it was 33.1 µM.

For `CCSC12CC3c4cccc5c4C(CN5C(=O)c4ccccc4)CC3(O1)N(C)C2=O` (centres undefined), the TGI in the assay with NCI-H23 lung is 69.8 µM; in the assay with CAKI-1 renal, more than 100 µM.

Take `Cc1ccc(-n2cc(-c3ccc(Cl)cc3)c3c2N=CN2NC(c4cccs4)=NC32)cc1` (centres undefined): the TGI in the assay with NCI-H23 lung was 52.3 µM; with CAKI-1 renal, 40.4 µM.

`COc1nc(C)nc2c1ncn2Cc1ccccc1`: the TGI with NCI-H23 lung and in the assay on CAKI-1 renal was more than 100 µM in each case.

For `NCCC1([N+](=O)[O-])CCNCC1`, the TGI in the assay on NCI-H23 lung and in the assay on CAKI-1 renal was more than 100 µM in each case.

Turning to `C=CCC1C2CCC(O[Si](C(C)C)(C(C)C)C(C)C)(C(C(=O)OC)C2)C1O` (centres undefined), the TGI with NCI-H23 lung and with CAKI-1 renal was more than 100 µM in each case.

Regarding `COc1ccccc1Cn1[nH]c(=O)c2cc([N+](=O)[O-])ccc21`, the TGI in the assay on NCI-H23 lung and with CAKI-1 renal was more than 100 µM throughout.

Take `c1cc(C[S+]2CCCC2)oc1C[S+]1CCCC1`: the TGI with NCI-H23 lung and in the assay with CAKI-1 renal was more than 100 µM each time.
